Assay results as given in the METLIN SMRT retention time set (Domingo-Almenara et al. 2019).

assay: gradient 5% acetonitrile 3 min, to 50% in 2 min, to 85% in 15 min, held 3 min, 100 µL/min; conditions: column: Zorbax Extend-C18 2.1 x 50 mm; eluents: water / acetonitrile, 0.1% formic acid
In short: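 Standards, all pure, were combined into mixtures of ~100 molecules and run at 100 μL/min on a Zorbax Extend-C18 column (2.1 × 50 mm, 1.8 μm) with water and acetonitrile, each containing 0.1% formic acid. A coupled quadrupole time-of-flight mass spectrometer operated in positive and negative ionization mode. Retention time values come from computationally picked adduct peaks, each inspected manually.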

Row | RP-LC retention time [s] | SMILES
1 | 793 | CCCc1cc(C2CCCN2C(=O)c2ccc(OC)c(OC)c2)no1 (stereo unspecified)
2 | 863 | Cc1cc(C)cc(N2CCC(NC(=O)c3cccc(C#N)c3)C2=O)c1 (stereo unspecified)
3 | 805 | Cc1nc(N2CCOCC2)c2c(C(=O)Nc3ccccc3F)c(C)oc2n1
4 | 1040 | Cc1ccc(NS(=O)(=O)c2cn(CC(C)C)c3ncccc23)cc1C
5 | 1000 | Cc1nn(-c2nc3ccccc3[nH]2)c2c1C(=O)CC(c1ccc(F)cc1)C2 (stereo unspecified)
6 | 981 | O=C(NCCc1c[nH]c2ccc(Cl)cc12)c1cccc(Cn2c(=O)c3cccn3c3cccnc32)c1
7 | 688 | Cn1nc(-c2nnc(-c3ccccc3)o2)c2c1CCN(S(=O)(=O)c1ccc3c(c1)CCC3)C2
8 | 1180 | CC(C)c1ccc(NC(=O)Cn2cnc3c(sc4nc(-c5ccccc5)ccc43)c2=O)cc1
9 | 1120 | C=CCn1c(=O)c2ccccc2n(Cc2nc(-c3ccc(Cl)c(F)c3)no2)c1=O
10 | 656 | CC1Oc2ccccc2N(CC(=O)N2CCN(c3cc(=O)n(C)c(=O)n3C)CC2)C1=O (stereo unspecified)
11 | 915 | O=C(NC1CCCC1)C1CCCN(S(=O)(=O)Cc2ccccc2Cl)C1 (stereo unspecified)
12 | 689 | Cc1cnc(-c2ccccc2)n1CCNS(=O)(=O)c1ccc2c(c1)CCC2
13 | 611 | CCNC(=O)Nc1ccc2c(c1)CN(Cc1ccc(F)cc1F)CCO2
14 | 649 | CC(C)n1c(=O)c(Nc2cccc(Cl)c2)nc2ccncc21
15 | 641 | COc1ncccc1C(=O)Nc1ccc2c(c1)CCC(=O)N2
16 | 844 | COc1cccc(-c2cn3ccn(-c4ccc(F)c(F)c4)c(=O)c3n2)c1
17 | 701 | CCCS(=O)(=O)N1CCC(Cc2ccc(COc3ccncc3)cc2)CC1
18 | 934 | O=C(NCc1ccc2c(c1)CCCN2C(=O)C1CCC1)c1cc(F)cc(F)c1
19 | 711 | COc1ccc(C(=O)N2CCN3CCS(=O)(=O)N(C4CC4)C(=O)C3C2)c(OC)c1 (stereo unspecified)
20 | 776 | CCOC(=O)C1CCN(C(=O)c2sc3ncn(CC(=O)N4CCCCC4C)c(=O)c3c2C)CC1 (stereo unspecified)
21 | 728 | COc1ccccc1-n1c(SCC(=O)Nc2cc(C)on2)nc2c(c1=O)SCC2
22 | 602 | Cc1ccsc1C(=O)N1CCCn2nc(-c3ccncc3)cc2C1

Row | RP-LC retention time [s] | SMILES
23 | 871 | COc1ccc(NC(=O)C(C)C2CCN(C(=O)Nc3ccc(F)cc3)CC2)c(OC)c1 (stereo unspecified)
24 | 773 | Cc1c(Cl)cccc1NC(=O)NCC(c1cccnc1)c1cn(C)c2ccccc12 (stereo unspecified)
25 | 963 | COC(=O)c1sc(NC(=O)COc2ccc(Cl)cc2)nc1C
26 | 1050 | Cc1ccc(N2C(=O)C3N=NN(c4ccc(F)cc4)C3C2=O)cc1C (stereo unspecified)
27 | 722 | O=C(NC1CCN(C(=O)c2cc(-c3cccs3)[nH]n2)CC1)C1CCCCC1
28 | 725 | CCC(C)C(NC(=O)c1cc(OC)c(OC)c(OC)c1)C(=O)Nc1nc2ccccc2[nH]1 (stereo unspecified)
29 | 699 | CC(NC(=O)C1CCN(c2cnc(N3CCCC3)nc2)CC1)c1ccc(F)cc1 (stereo unspecified)
30 | 907 | COC(=O)c1ccccc1S(=O)(=O)N1CCc2c(c(-c3nnc(-c4ccccc4)o3)nn2C)C1
31 | 751 | Cc1ccc(CNS(=O)(=O)c2ccc3c(c2)CCCC(=O)N3)cc1
32 | 837 | Cc1nc(-c2cc(S(=O)(=O)N3CCC(C(=O)NCc4ccco4)CC3)c(C)s2)no1
33 | 748 | CCn1ccc2c(cc(C(=O)Nc3cccc(OC)c3)n2C)c1=O
34 | 1220 | O=C(NCc1cccc(Cl)c1)c1c(O)c2cccnc2n(-c2ccccc2)c1=O
35 | 940 | CCn1cc(-c2nc(C(=O)Nc3ccc(F)c(F)c3)cs2)c2cccnc21
36 | 892 | Cc1ccccc1-c1nsc(SCC(=O)NCc2ccco2)n1
37 | 729 | COc1ccc(-c2cn3c(CC(=O)NC4CCCCCC4)csc3n2)cc1OC
38 | 826 | CCOc1ccccc1CNC(=O)C1CCCN(c2nnc3ccc(Cl)cn23)C1 (stereo unspecified)
39 | 806 | O=C(Nc1ccccc1Cl)N(Cc1ccsc1)Cc1ccccn1
40 | 649 | CCOC(=O)C1CCN(C(=O)Cc2csc(NC(=O)c3ccco3)n2)CC1
41 | 685 | Cc1ccc(Nc2nccc(N(C)c3ccc4c(C)n(C)nc4c3)n2)cc1S(N)(=O)=O
42 | 1360 | CC1CCN(S(=O)(=O)c2cccc(-c3nc(-c4ccccc4)no3)c2)CC1
43 | 845 | Fc1cccc(Cl)c1C1SCc2nc3ccccc3n21 (stereo unspecified)
44 | 620 | COCCN1CCC(N2CCN(S(=O)(=O)c3ccc(F)c(Cl)c3)CC2)C1=O (stereo unspecified)

Row | RP-LC retention time [s] | SMILES
45 | 1000 | Cc1ccc(-c2nc(Cn3nnc(C(=O)NCc4ccco4)c3C)c(C)o2)cc1
46 | 1100 | CCOc1ccccc1NC(=O)N1CCCC1c1nc(-c2ccc(OC)cc2)no1 (stereo unspecified)
47 | 842 | O=C(CSc1ccc(NC(=O)c2cccs2)nn1)Nc1ccccc1C(F)(F)F
48 | 843 | CCCCOc1ccc(CNC(=O)c2ccc3c(c2)N(C)C(=O)C2CCCCN32)cc1 (stereo unspecified)
49 | 969 | CCCn1cc(C(=O)NCC(=O)OC)c(S(=O)(=O)N2CCN(c3ccccc3OCC)CC2)n1
50 | 785 | COc1cccc(OC)c1C(=O)Nc1nc(-c2ccc3c(c2)NC(=O)CO3)c(C)s1
51 | 609 | CC(C)C(NC(=O)Nc1ccc2c(c1)OCCO2)C(=O)N1CCc2ccccc21 (stereo unspecified)
52 | 905 | CCCCn1cnc2c(-c3ccccc3)cn(CC(=O)NC(C)C)c2c1=O
53 | 702 | CCn1cc(S(=O)(=O)N2CCCN(S(=O)(=O)c3ccccc3)CCC(=O)NCC2)cn1
54 | 862 | COc1cc(F)ccc1-c1ccnc2nc(CC(C)C)nn12
55 | 653 | COc1ccc(C2C(C(=O)N3CCOCC3)=C(C)NC3=C2C(=O)CCC3)cc1Br (stereo unspecified)
56 | 734 | Cc1nc2cc(N3CC(C(=O)NCc4ccccc4Cl)CC3=O)ccc2o1 (stereo unspecified)
57 | 1110 | COc1cccc(S(=O)(=O)N2CCC(c3noc(-c4cccc(F)c4)n3)CC2)c1
58 | 545 | COc1ccc(CNC(=O)c2cn3ccc(C)cc3n2)cc1
59 | 714 | Cc1cc2c(N3CCCC(C(=O)NCc4ccccc4Br)C3)nccc2s1 (stereo unspecified)
60 | 755 | CCCn1c(=O)c2sc(N3CCCC3)nc2n(CC(=O)NCc2cccs2)c1=O
61 | 833 | COc1ccc(C(C)NC(=O)c2cn3cc(Cl)ccc3n2)cc1 (stereo unspecified)
62 | 1080 | COc1ccccc1N1CCN(c2cc(SCC(=O)NCCC3=CCCCC3)ncn2)CC1
63 | 552 | Cc1ccc2nc(C(=O)NCCN3CCCCC3C)cn2c1 (stereo unspecified)
64 | 767 | O=C([C@@H]1C[C@H](Oc2ccccc2)CN1C(=O)c1cccs1)N1CCCC1
65 | 885 | COc1ccc(N2CCN(CC(=O)N3CCC(C(N)=O)CC3)CC2)cc1
66 | 986 | CSc1ccc(-c2nc3ccc(Br)cn3c2Nc2ccc(C)cc2)cc1
